Read-outs that look alike come from different tables or passages of the source.

Here are results for 17 compounds from patent US12139492B2 (Endotarget Inc., priority 2021, dated 2024).

One assay concerns Mino cells. The assay is described as follows: Antiproliferative effect, MTS cell viability assay, Mino cells. It is filed as cell-based. The note with it: Homo sapiens, Mino mantle cell lymphoma cells, read-out: IC50 (anti-proliferation) Mino cells. A digest of the protocol: (§1)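 Cells were exposed to compound at 0, 0.001, 0.01, 0.1, 1 and 10 μM for 72 h. Viability was then measured by MTS assay, reading formazan produced by metabolically active cells as absorbance at 490 nm.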

The subject of another assay is JeKo-1 cells. The assay is described as follows: Antiproliferative effect, MTS cell viability assay, JeKo-1 cells. Format: cell-based. The conditions noted are these: Homo sapiens; JeKo-1 mantle cell lymphoma cells; read-out: IC50 (anti-proliferation) JeKO-1 cells. In outline:
as §1
In general terms: Formazan colour is commonly taken as a measure of viable cells.

A further assay has as its target BTK (Homo sapiens, UniProt Q06187). As to the kind of experiment: Degradation of BTK protein in Namalwa cells (Western blot; DC50, Dmax). The note with it: for DC50: read-out: DC50 (BTK degradation), concentration giving 50% reduction of BTK expression level, cell line not given; for Dmax: read-out: Dmax (BTK degradation).

Sequence of BTK (Q06187 whole entry): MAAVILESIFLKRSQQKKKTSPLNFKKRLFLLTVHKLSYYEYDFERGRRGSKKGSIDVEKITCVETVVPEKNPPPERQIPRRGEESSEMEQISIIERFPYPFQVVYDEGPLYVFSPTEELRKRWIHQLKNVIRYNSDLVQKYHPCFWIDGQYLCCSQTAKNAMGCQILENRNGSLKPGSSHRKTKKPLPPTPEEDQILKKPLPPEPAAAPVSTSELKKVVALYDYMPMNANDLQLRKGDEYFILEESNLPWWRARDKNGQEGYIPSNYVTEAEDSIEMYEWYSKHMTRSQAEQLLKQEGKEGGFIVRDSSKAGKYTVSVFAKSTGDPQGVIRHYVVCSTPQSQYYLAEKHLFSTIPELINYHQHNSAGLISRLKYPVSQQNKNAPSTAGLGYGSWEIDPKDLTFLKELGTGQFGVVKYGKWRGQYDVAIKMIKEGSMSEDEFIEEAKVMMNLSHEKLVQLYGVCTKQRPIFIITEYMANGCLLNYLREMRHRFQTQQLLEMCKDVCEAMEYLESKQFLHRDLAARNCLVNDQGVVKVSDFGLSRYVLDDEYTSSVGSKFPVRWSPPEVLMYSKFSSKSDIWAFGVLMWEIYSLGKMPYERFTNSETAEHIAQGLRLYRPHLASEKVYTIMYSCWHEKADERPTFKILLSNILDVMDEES

With `Nc1ncnc2c1c(-c1ccc(Oc3ccccc3)cc1)nn2C1CCN(CCN2CCC(N3CCN(c4ccc5c(c4)C(=O)N(C4CCC(=O)NC4=O)C5=O)CC3)C2)CC1` (centres unmarked) [Compound 459, 5-(4-(1-(2-(4-(4-amino-3-(4-phenoxyphenyl)-1H-pyrazolo(3,4-d)pyrimidin-1-yl)piperidin-1-yl)ethyl)pyrrolidin-3-yl)piperazin-1-yl)-2-(2,6-dioxopiperidin-3-yl)isoindoline-1,3-dione], in the assay with Mino cells, the IC50 was under 1 µM. Also, the IC50 with JeKo-1 cells was under 1 µM. In addition, on BTK, the DC50 (as a rule, the concentration at which degradation of the target reaches its halfway point) was under 0.01 µM and the maximal degradation (Dmax) (as a rule, the largest share of the target that was removed) is over 90%.

For `Nc1ncnc2c1c(-c1ccc(Oc3ccccc3)cc1)nn2C1CCN(CCN2CCC(N3CCN(c4ccc5c(c4)CN(C4CCC(=O)NC4=O)C5=O)CC3)C2)CC1` (centres unmarked) [Compound 460, 3-(5-(4-(1-(2-(4-(4-amino-3-(4-phenoxyphenyl)-1H-pyrazolo[3,4-d]pyrimidin-1-yl)piperidin-1-yl)ethyl)pyrrolidin-3-yl)piperazin-1-yl)-1-oxoisoindolin-2-yl)piperidine-2,6-dione], the IC50 in the assay with Mino cells (MINO) was 1 to 10 µM. For the same compound, the IC50 with JeKo-1 cells was 1 to 10 µM. Further, at BTK, the 50% degradation concentration (DC50) was in the range of 0.01 to 0.05 µM and the maximal degradation (Dmax) was over 75%.

With `Nc1ncnc2c1c(-c1ccc(Oc3ccccc3)cc1)nn2C1CCN(CCN2CC(CN3CCN(c4ccc5c(c4)C(=O)N(C4CCC(=O)NC4=O)C5=O)CC3)C2)CC1` (centres unmarked) [Compound 461, 5-(4-((1-(2-(4-(4-amino-3-(4-phenoxyphenyl)-1H-pyrazolo[3,4-d]pyrimidin-1-yl)piperidin-1-yl)ethyl)azetidin-3-yl)methyl)piperazin-1-yl)-2-(2,6-dioxopiperidin-3-yl)isoindoline-1,3-dione], in the assay on Mino cells (MINO), the IC50 is under 1 µM. Moreover, in the assay on JeKo-1 cells, the IC50 was under 1 µM. For the same compound, on BTK, the DC50 was under 0.01 µM and the greatest degradation seen (Dmax) is over 90%.

As to `Nc1ncnc2c1c(-c1ccc(Oc3ccccc3)cc1)nn2C1CCN(CCN2CC(CN3CCN(c4ccc5c(c4)CN(C4CCC(=O)NC4=O)C5=O)CC3)C2)CC1` (centres unmarked) [Compound 462, 3-(5-(4-((1-(2-(4-(4-amino-3-(4-phenoxyphenyl)-1H-pyrazolo[3,4-d]pyrimidin-1-yl)piperidin-1-yl)ethyl)azetidin-3-yl)methyl)piperazin-1-yl)-1-oxoisoindolin-2-yl)piperidine-2,6-dione], the IC50 in the assay on Mino cells (MINO) and in the assay on JeKo-1 cells was 1 to 10 µM each time. The DC50 at BTK lay within 0.01 to 0.05 µM. The greatest degradation seen (Dmax) on BTK was over 50%.

With `Nc1ncnc2c1c(-c1ccc(Oc3ccccc3)cc1)nn2C1CCN(CCN2CC(N3CCN(c4ccc5c(c4)C(=O)N(C4CCC(=O)NC4=O)C5=O)CC3)C2)CC1` (centres unmarked) [Compound 463, 5-(4-(1-(2-(4-(4-amino-3-(4-phenoxyphenyl)-1H-pyrazolo[3,4-d]pyrimidin-1-yl)piperidin-1-yl)ethyl)azetidin-3-yl)piperazin-1-yl)-2-(2,6-dioxopiperidin-3-yl)isoindoline-1,3-dione], the IC50 with Mino cells (MINO) was under 1 µM. For the same compound, in the assay on JeKo-1 cells, the IC50 was under 1 µM. Moreover, at BTK, the 50% degradation concentration (DC50) is 0.01 to 0.05 µM and the Dmax was over 90%.

Consider `Nc1ncnc2c1c(-c1ccc(Oc3ccccc3)cc1)cn2C1CCN(CCN2CC(N3CCN(c4ccc5c(c4)CN(C4CCC(=O)NC4=O)C5=O)CC3)C2)CC1` (centres unmarked) [Compound 464, 3-(5-(4-(1-(2-(4-(4-amino-5-(4-phenoxyphenyl)-7H-pyrrolo[2,3-d]pyrimidin-7-yl)piperidin-1-yl)ethyl)azetidin-3-yl)piperazin-1-yl)-1-oxoisoindolin-2-yl)piperidine-2,6-dione], for which the IC50 with Mino cells (MINO) and with JeKo-1 cells was 1 to 10 µM each time. The half-maximal degradation concentration (DC50) at BTK was in the range of 0.01 to 0.05 µM. Besides, the Dmax on BTK is over 75%.

On to `Nc1ncnc2c1c(-c1ccc(Oc3ccccc3)cc1)nn2C1CCN(CCN2CCN(CCSc3ccc4c(c3)C(=O)N(C3CCC(=O)NC3=O)C4=O)CC2)CC1` (centres unmarked) [Compound 465, 5-((2-(4-(2-(4-(4-amino-3-(4-phenoxyphenyl)-1H-pyrazolo(3,4-d)pyrimidin-1-yl)piperidin-1-yl)ethyl)piperazin-1-yl)ethyl)thio)-2-(2,6-dioxopiperidin-3-yl)isoindoline-1,3-dione], for which the IC50 with Mino cells (MINO) was in the range of 1 to 10 µM. In addition, the IC50 in the assay with JeKo-1 cells was 1 to 10 µM. Besides, at BTK, the DC50 lay within 0.01 to 0.05 µM and the greatest degradation seen (Dmax) is over 90%.

For the compound `Nc1ncnc2c1c(-c1ccc(Oc3ccccc3)cc1)nn2C1CCN(CCN2CCN(CCSc3ccc4c(c3)CN(C3CCC(=O)NC3=O)C4=O)CC2)CC1` (centres unmarked) [Compound 466, 3-(5-((2-(4-(2-(4-(4-amino-3-(4-phenoxyphenyl)-1H-pyrazolo[3,4-d]pyrimidin-1-yl)piperidin-1-yl)ethyl)piperazin-1-yl)ethyl)thio)-1-oxoisoindolin-2-yl)piperidine-2,6-dione], in the assay with Mino cells (MINO), the IC50 was over 10 µM. For the same compound, in the assay with JeKo-1 cells, the IC50 was over 10 µM. In addition, on BTK, the DC50 is over 0.05 µM and the Dmax is over 50%.

With `Nc1ncnc2c1c(-c1ccc(Oc3ccccc3)cc1)nn2C1CCN(CCN2CCN(CCCSc3ccc4c(c3)C(=O)N(C3CCC(=O)NC3=O)C4=O)CC2)CC1` (centres unmarked) [Compound 467, 5-((3-(4-(2-(4-(4-amino-3-(4-phenoxyphenyl)-1H-pyrazolo[3,4-d]pyrimidin-1-yl)piperidin-1-yl)ethyl)piperazin-1-yl)propyl)thio)-2-(2,6-dioxopiperidin-3-yl)isoindoline-1,3-dione], the IC50 in the assay with Mino cells (MINO) was 1 to 10 µM. Further, the IC50 with JeKo-1 cells fell in the range of 1 to 10 µM. Moreover, on BTK, the 50% degradation concentration (DC50) is 0.01 to 0.05 µM and the Dmax was over 90%.

On to `Nc1ncnc2c1c(-c1ccc(Oc3ccccc3)cc1)nn2C1CCN(CCN2CCN(CCCSc3ccc4c(c3)CN(C3CCC(=O)NC3=O)C4=O)CC2)CC1` (centres unmarked) [Compound 468], for which the IC50 in the assay with Mino cells (MINO) is 1 to 10 µM. The IC50 with JeKo-1 cells is 1 to 10 µM. At BTK, the DC50 is under 0.01 µM and the greatest degradation seen (Dmax) was over 90%.

On to `Nc1ncnc2c1c(-c1ccc(Oc3ccccc3)cc1)nn2C1CCN(CCN2CCC(CSc3ccc4c(c3)C(=O)N(C3CCC(=O)NC3=O)C4=O)CC2)CC1` (centres unmarked) [Compound 469, 5-(((1-(2-(4-(4-amino-3-(4-phenoxyphenyl)-1H-pyrazolo[3,4-d]pyrimidin-1-yl)piperidin-1-yl)ethyl)piperidin-4-yl)methyl)thio)-2-(2,6-dioxopiperidin-3-yl)isoindoline-1,3-dione], for which the IC50 with Mino cells (MINO) was in the range of 1 to 10 µM. Besides, the IC50 with JeKo-1 cells was 1 to 10 µM. Also, on BTK, the DC50 is under 0.01 µM and the Dmax was over 90%.

Consider `Nc1ncnc2c1c(-c1ccc(Oc3ccccc3)cc1)nn2C1CCN(CCN2CCC(CSc3ccc4c(c3)CN(C3CCC(=O)NC3=O)C4=O)CC2)CC1` (centres unmarked) [Compound 470, 3-(5-(((1-(2-(4-(4-amino-3-(4-phenoxyphenyl)-1H-pyrazolo[3,4-d]pyrimidin-1-yl)piperidin-1-yl)ethyl)piperidin-4-yl)methyl)thio)-1-oxoisoindolin-2-yl)piperidine-2,6-dione], for which the IC50 is under 1 µM in the assay with Mino cells (MINO) and 1 to 10 µM in the assay on JeKo-1 cells. The DC50 on BTK was under 0.01 µM. The Dmax on BTK was over 90%.

On to `Nc1ncnc2c1c(-c1ccc(Oc3ccccc3)cc1)nn2C1CCN(CCN2CCC(Sc3ccc4c(c3)C(=O)N(C3CCC(=O)NC3=O)C4=O)CC2)CC1` (centres unmarked) [Compound 471, 5-((1-(2-(4-(4-amino-3-(4-phenoxyphenyl)-1H-pyrazolo[3,4-d]pyrimidin-1-yl)piperidin-1-yl)ethyl)piperidin-4-yl)thio)-2-(2,6-dioxopiperidin-3-yl)isoindoline-1,3-dione], for which the IC50 with Mino cells (MINO) and in the assay on JeKo-1 cells was 1 to 10 µM each time. In addition, on BTK, the DC50 lay within 0.01 to 0.05 µM. The Dmax on BTK is over 75%.

Turning to `Nc1ncnc2c1c(-c1ccc(Oc3ccccc3)cc1)nn2C1CCN(CCN2CCC(Sc3ccc4c(c3)CN(C3CCC(=O)NC3=O)C4=O)CC2)CC1` (centres unmarked) [Compound 472, 3-(5-((1-(2-(4-(4-amino-3-(4-phenoxyphenyl)-1H-pyrazolo[3,4-d]pyrimidin-1-yl)piperidin-1-yl)ethyl)piperidin-4-yl)thio)-1-oxoisoindolin-2-yl)piperidine-2,6-dione], the IC50 in the assay with Mino cells (MINO) was 1 to 10 µM. Also, in the assay on JeKo-1 cells, the IC50 was in the range of 1 to 10 µM. Also, on BTK, the 50% degradation concentration (DC50) lay within 0.01 to 0.05 µM and the Dmax was over 75%.

For `Nc1ncnc2c1c(-c1ccc(Oc3ccccc3)cc1)nn2C1CCN(CCN2CCC(CSc3ccc4c(c3)C(=O)N(C3CCC(=O)NC3=O)C4=O)C2)CC1` (centres unmarked) [Compound 473, 5-(((1-(2-(4-(4-amino-3-(4-phenoxyphenyl)-1H-pyrazolo[3,4-d]pyrimidin-1-yl)piperidin-1-yl)ethyl)pyrrolidin-3-yl)methyl)thio)-2-(2,6-dioxopiperidin-3-yl)isoindoline-1,3-dione], the IC50 in the assay with Mino cells (MINO) and in the assay on JeKo-1 cells was 1 to 10 µM each time. Besides, at BTK, the DC50 is 0.01 to 0.05 µM. Also, the Dmax on BTK was over 90%.

`Nc1ncnc2c1c(-c1ccc(Oc3ccccc3)cc1)nn2C1CCN(CCN2CCC(CSc3ccc4c(c3)CN(C3CCC(=O)NC3=O)C4=O)C2)CC1` (centres unmarked) [Compound 474, 3-(5-(((1-(2-(4-(4-amino-3-(4-phenoxyphenyl)-1H-pyrazolo[3,4-d]pyrimidin-1-yl)piperidin-1-yl)ethyl)pyrrolidin-3-yl)methyl)thio)-1-oxoisoindolin-2-yl)piperidine-2,6-dione]: in the assay on Mino cells (MINO), the IC50 lay in the range of 1 to 10 µM. For the same compound, in the assay with JeKo-1 cells, the IC50 was in the range of 1 to 10 µM. At BTK, the DC50 was under 0.01 µM and the Dmax was over 90%.

As to `Nc1ncnc2c1c(-c1ccc(Oc3ccccc3)cc1)nn2[C@@H]1CCCN(C2CCN(C(=O)N3CC(N4CCN(c5ccc6c(c5)C(=O)N(C5CCC(=O)NC5=O)C6=O)CC4)C3)CC2)C1` (stereo partly drawn) [Compound 475, 5-(4-(1-((R)-3-(4-amino-3-(4-phenoxyphenyl)-1H-pyrazolo[3,4-d]pyrimidin-1-yl)-[1,4′-bipiperidine]-1′-carbonyl)azetidin-3-yl)piperazin-1-yl)-2-(2,6-dioxopiperidin-3-yl)isoindoline-1,3-dione], in the assay on Mino cells (MINO), the IC50 was under 1 µM. Also, the IC50 in the assay with JeKo-1 cells lay within 1 to 10 µM. In addition, at BTK, the DC50 was under 0.01 µM and the Dmax was over 90%.
